Source: patent publication US20050070555A1, “Aroyl pyridinones” (Bayer HealthCare AG, priority 2001, published 2005)

Target: p38 map kinase (Homo sapiens, UniProt Q16539)
Assay: P 38 Map Kinase Assay (SPA [33-P] serine/threonine kinase assay)
Format: biochemical
Details: 10 μM ATP, 2.5 μM biotinylated myelin basic protein substrate, 500 ng/well enzyme, 90 min, 30° C.
Text: The assay makes use of the serine/theonine protein kinase SPA [33-P]+assay kit from Amersham Phamacia Biotech. The assay is a homogeneous technique using SPA technology for the quantification of serine threonine kinase activity.
It is based on the p38 map kinase catalysed transfer of the γ-phosphate group of the [γ-^33P] […] to the substrate, biotinylated myelin basic protein (MBP). The resulting [^33P]-labelled biotinylated product is trapped on a PVT SPA bead containing scintillant which has been surface coated with streptavidin.
The beads are allowed to settle to eliminate high background, and therefore only ^33P labelled product attached to the SPA bead is detected.
The assay is carried out in the presence and absence of test compounds to determine their effect on p38 map kinase activity.
A test protocol is as follows:
• 1. SPA assay kit (Amersham). Components: • Assay buffer (store frozen) • Stop solution (store frozen). • Streptavidin coated SPA beads—reconstitute with 5 mls of PBS. (50 mg/ml). (Store in fridge) • 2. p 38 map kinase enzyme SCRD (500 μg/ml)—aliquoted in 1.5 mls. • dilute 1:10 to 50 μg/ml • 1 plate—110 μl (stock 500 μg/ml)+990 μl PBS. • 3. Assay reagent: • for 1 plate: 504 μl Assay buffer (500 Mm MOPS pH 7.2, 10 μM ATP, 50 mM MgCl2, 25 μM biotinylated myelin basic protein (MBP)). • 2513.4 μl Water • 1.1 μl 33-p-ATP (10 μCi/ul) (on activity date/adjust for activity date) • 4.534 μl×10^-2M ATP in water • 4. Stop solution: • for 1 plate: 265.92 μl streptavidin coated beads (50 mg/ml) • 1651.684 μl stop buffer (500 μM ATP, 50 mM EDTA 1% Triton X-100) • 7084.32 μl PBS. • 1. Add 10 μl compound Dilutons (5× final conc) Test wells. • 2. Add 10 μl 12.5% DMSO to control/blank wells. • 3. Add 10 μl enzyme (50 μg/ml) final conc 500 ng/well • 4. Add 10 μl PBS to blank wells. • 5. Add 30 μl of assay reagent to each well. (final conc 10 μM ATP, 2.5 μM substrate) • 6. Mix well on plate shaker. • 7. Incubate 90 min (30° C.) • 8. Add 75 μl of stop solution to each well (final conc 55 μM ATP) • 9. Spin plate: −3 min/1600 rpm/20° C. (alternatively leave to settle overnight) • 10. Read in Microbeta, Protocol SPA paralux 3.

Chain of p38 map kinase (Q16539 whole entry): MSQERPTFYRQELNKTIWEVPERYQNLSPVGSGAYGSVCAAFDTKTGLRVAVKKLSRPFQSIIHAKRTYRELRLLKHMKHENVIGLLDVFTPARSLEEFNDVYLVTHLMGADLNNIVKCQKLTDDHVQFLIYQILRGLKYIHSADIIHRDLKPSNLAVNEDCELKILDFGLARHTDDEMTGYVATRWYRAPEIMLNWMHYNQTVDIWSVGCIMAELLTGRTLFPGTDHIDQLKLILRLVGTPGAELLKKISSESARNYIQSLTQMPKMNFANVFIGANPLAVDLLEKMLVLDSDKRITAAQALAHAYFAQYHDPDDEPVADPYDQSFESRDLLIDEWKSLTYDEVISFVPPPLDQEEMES

| Compound | IC50 [µM] |
| --- | --- |
| O=C(c1ccc(F)cc1F)c1ccc(=O)n2c1N[C@@H]1CCCC[C@@H]12 (racemic) [Example 1, (Rac-cis-5a,9a)-4-(2,4-difluorobenzoyl)-5a,6,7,8,9,9a-hexahydropyrido[1,2-a]benzimidazol-1(5H)-one] | 0.34 |
| O=C(c1ccc(F)cc1F)c1ccc(=O)n2c1N[C@H]1CCCC[C@@H]12 [Example 2-1, (5aS,9aS)-4-(2,4-difluorobenzoyl)-5a,6,7,8,9,9a-hexahydropyrido[1,2-a]benzimidazol-1(5H)-one] | 0.164 |
| O=C(c1ccccc1)c1ccc(=O)n2c1N[C@@H]1CCCC[C@@H]12 (racemic) [Example 3, (Rac-cis-5a,9a)-4-benzoyl-5a,6,7,8,9,9a-hexahydropyrido[1,2-a]benzimidazol-1(5H)-one] | 0.455 |

Second part, the compound after the results:

| IC50 [µM] | Compound |
| --- | --- |
| 1.8 | CC1(C)Cn2c(c(C(=O)c3ccc(Cl)cc3)ccc2=O)N1 [Example 21] |
| 0.228 | O=C(c1cccc(Cl)c1)c1ccc(=O)n2c1N[C@@H]1CCCC[C@@H]12 (racemic) [Example 9, (Rac-cis-5a,9a)-4-(3-chlorobenzoyl)-5a,6,7,8,9,9a-hexahydropyrido[1,2-a]benzimidazol-1(5H)-one] |
| 0.386 | CC1(C)CNc2c(C(=O)c3ccc(F)cc3)ccc(=O)n2C1 [Example 24, 9-(4-Fluorobenzoyl)-3,3-dimethyl-1,2,3,4-tetrahydro-6H-pyrido[1,2-a]pyrimidin-6-one] |
